Assay results taken from ChEMBL document CHEMBL3885881, “DrugMatrix”.

Species on record: Rattus norvegicus
Assay: DrugMatrix - Regimen: Daily Repeat
Type: toxicity, organism-based, Sprague-Dawley
Parameters: regimen Daily Repeat, gender Male, age 6-8 weeks
Details: in vivo, sc, route subcutaneous, […]; for POTASSIUM / SODIUM / TOTAL BILIRUBIN / TOTAL PROTEIN / URIC ACID / ALANINE AMINOTRANSFERASE / ALBUMIN / ALKALINE PHOSPHATASE / ASPARTATE AMINOTRANSFERASE / BLOOD UREA NITROGEN / CARBON DIOXIDE / CHLORIDE / CHOLESTEROL / CREATINE PHOSPHOKINASE / CREATININE / GLUCOSE / LACTATE DEHYDROGENASE / LIPASE / PHOSPHORUS: tissue Plasma; for ABSOLUTE BASOPHIL / ABSOLUTE EOSINOPHIL / ABSOLUTE LYMPHOCYTE / ABSOLUTE MONOCYTE / ABSOLUTE SEGMENTED NEUTROPHIL / BASOPHIL / EOSINOPHIL / ERYTHROCYTE COUNT / HEMATOCRIT / HEMOGLOBIN / LEUKOCYTE COUNT / LYMPHOCYTE / MEAN CORPUSCULAR HEMOGLOBIN / MEAN CORPUSCULAR HEMOGLOBIN CONCENTRATION / MEAN CORPUSCULAR VOLUME / MONOCYTE / NEUTROPHIL / NUCLEATED RED BLOOD CELLS / PLATELET COUNT: tissue Blood
[1] = 0.1 mg/kg, 120 h, dose level Low, time 5 day
[2] = 2 mg/kg, 72 h, dose level M2, time 3 day
[3] = 2 mg/kg, 120 h, dose level M2, time 5 day

SMILES: C[C@]12CC[C@@H]3c4ccc(OC(=O)c5ccccc5)cc4CC[C@H]3[C@@H]1CC[C@@H]2O [ESTRADIOL BENZOATE]
- POTASSIUM [1]: 6.15 MEQ/L
- SODIUM [1]: 142.73 MEQ/L
- TOTAL BILIRUBIN [1]: 0.1 mg/dL
- TOTAL PROTEIN [1]: 7.67 G/DL
- URIC ACID [1]: 2.73 mg/dL
- ABSOLUTE BASOPHIL [2]: 0 CELLS/uL
- ABSOLUTE EOSINOPHIL [2]: 32 CELLS/uL
- ABSOLUTE LYMPHOCYTE [2]: 8090.33 CELLS/uL
- ABSOLUTE MONOCYTE [2]: 25.67 CELLS/uL
- ABSOLUTE SEGMENTED NEUTROPHIL [2]: 718.67 CELLS/uL
- BASOPHIL [2]: 0%
- EOSINOPHIL [2]: 0.33%
- ERYTHROCYTE COUNT [2]: 5.61 x10E6/uL
- HEMATOCRIT [2]: 37.6%
- HEMOGLOBIN [2]: 14.37 G/DL
- LEUKOCYTE COUNT [2]: 8.87 x10E3/uL
- LYMPHOCYTE [2]: 91.33%
- MEAN CORPUSCULAR HEMOGLOBIN [2]: 25.63 pg
- MEAN CORPUSCULAR HEMOGLOBIN CONCENTRATION [2]: 38.23 G/DL
- MEAN CORPUSCULAR VOLUME [2]: 67.03 fL
- MONOCYTE [2]: 0.33%
- NEUTROPHIL [2]: 8%
- NUCLEATED RED BLOOD CELLS [2]: 0.33 /100WBC
- PLATELET COUNT [2]: 1211.67 x10E3/uL
- ALANINE AMINOTRANSFERASE [2]: 46.67 u/L
- ALBUMIN [2]: 3.97 G/DL
- ALKALINE PHOSPHATASE [2]: 647.67 u/L
- ASPARTATE AMINOTRANSFERASE [2]: 67.67 u/L
- BLOOD UREA NITROGEN [2]: 9.67 mg/dL
- CARBON DIOXIDE [2]: 23.33 mmol/L
- CHLORIDE [2]: 96.33 MEQ/L
- CHOLESTEROL [2]: 36.33 mg/dL
- CREATINE PHOSPHOKINASE [2]: 231.67 u/L
- CREATININE [2]: 0.28 mg/dL
- GLUCOSE [2]: 138.67 mg/dL
- LACTATE DEHYDROGENASE [2]: 103 u/L
- LIPASE [2]: 9.33 u/L
- PHOSPHORUS [2]: 10.07 mg/dL
- POTASSIUM [2]: 5.43 MEQ/L
- SODIUM [2]: 138.43 MEQ/L
- TOTAL BILIRUBIN [2]: 0.1 mg/dL
- TOTAL PROTEIN [2]: 5.77 G/DL
- URIC ACID [2]: 0.63 mg/dL
- ABSOLUTE BASOPHIL [3]: 0 CELLS/uL
- ABSOLUTE EOSINOPHIL [3]: 34.67 CELLS/uL
- ABSOLUTE LYMPHOCYTE [3]: 10740.67 CELLS/uL
- ABSOLUTE MONOCYTE [3]: 0 CELLS/uL
- ABSOLUTE SEGMENTED NEUTROPHIL [3]: 658 CELLS/uL
- BASOPHIL [3]: 0%
- EOSINOPHIL [3]: 0.33%
- ERYTHROCYTE COUNT [3]: 6.23 x10E6/uL
- HEMATOCRIT [3]: 39.53%
- HEMOGLOBIN [3]: 15 G/DL
- LEUKOCYTE COUNT [3]: 11.43 x10E3/uL
- LYMPHOCYTE [3]: 93.67%
- MEAN CORPUSCULAR HEMOGLOBIN [3]: 24.17 pg
- MEAN CORPUSCULAR HEMOGLOBIN CONCENTRATION [3]: 38 G/DL
- MEAN CORPUSCULAR VOLUME [3]: 63.5 fL
- MONOCYTE [3]: 0%
- NEUTROPHIL [3]: 6%
- NUCLEATED RED BLOOD CELLS [3]: 0 /100WBC
- PLATELET COUNT [3]: 1334 x10E3/uL
- ALANINE AMINOTRANSFERASE [3]: 47.33 u/L
- ALBUMIN [3]: 3.9 G/DL
- ALKALINE PHOSPHATASE [3]: 436.33 u/L
- ASPARTATE AMINOTRANSFERASE [3]: 73.67 u/L
- BLOOD UREA NITROGEN [3]: 13.67 mg/dL
- CARBON DIOXIDE [3]: 24.33 mmol/L
- CHLORIDE [3]: 103.67 MEQ/L
- CHOLESTEROL [3]: 34 mg/dL
- CREATINE PHOSPHOKINASE [3]: 348.33 u/L
- CREATININE [3]: 0.2 mg/dL
- GLUCOSE [3]: 160.67 mg/dL
- LACTATE DEHYDROGENASE [3]: 186.67 u/L
- LIPASE [3]: 8.67 u/L
- PHOSPHORUS [3]: 11.73 mg/dL
- POTASSIUM [3]: 5.75 MEQ/L
